Laboratory results: publication PMC12860872, “Preclinical evaluation of DOTAGA.Glu.(FAPI)2 and DO3A.Glu.(FAPI)2 as theranostics with human dosimetry extrapolation to lutetium-177 and terbium-161 analogs” (European Journal of Nuclear Medicine and Molecular Imaging, 2025)
“And” between values parts separate entries of the source, which are not always exact repeats. Equal values may be shown once.

Legend:
PC3-mice = test: Organ clearance biological half-lives from biodistribution data; type: in vivo, mouse
Experimental: Blood samples were collected from the facial vein at 1, 3, 5, 7, 10, 15, 20, 30, 45, 60, 240, and 1440 min p.i., weighed, and measured for radioactivity using a γ-counter. Results were expressed as % I.A./g of blood and plotted over time. The initial and terminal half-lives were determined using Two-Phase Decay Model. The biological half-lives of selected organs were calculated from the biodistribution data using One-Phase Decay Model (GraphPad Prism 8).

[1] = Extrapolated human dosimetry (OLINDA/EXM, ICRP-89 phantoms); design: TIAC average pancreas: unit not given beside the values; TIAC average stomach / TIAC average Small Intestine / TIAC average Left Column / TIAC average Rectum / TIAC average adrenal / TIAC average bone / TIAC average Red marrow / TIAC average salivary glands / TIAC average ROB / TIAC average Total Frac IA / TIAC average heart content / TIAC average heart wall / TIAC average liver / TIAC average spleen / TIAC average lung / TIAC average kidney: unit not given here
Experimental: To address inter-animal variability, the TIACs for each source organ were calculated from both the mean nTACs and the nTACs obtainend from fitting the mean ± 1 standard deviation (SD) of the normalized time-activity data, providing upper and lower bounds.
The mice-to-human TIAC extrapolation accounted for species-specific differences in relative source organ masses, m(organ), as compared to the total body weight (WB), for the mice (m) and human (h) models respectively.
(§1) The human organ masses, m(organ)h, were obtained from ICRP-89 adult male and female reference phantoms, while the murine organ masses, m(organ)m, were derived from the standard MOBY mouse model. The extrapolated human TIACs, TIACh were entered in the OLINDA/EXM software to compute the absorbed doses to target organs and the effective dose for adult male, female, and gender-averaged human models. […]
The TIACs, for [177Lu]Lu-DOTAGA.Glu.(FAPI)2 and [177Lu]Lu-DO3A.Glu.(FAPI)2, were determined by time integration of the nTACs. To account for the inter-animal variability, the TIACs for each source organ were calculated using both the mean nTACs and the nTACs obtainend from fitting the mean ±1 standard deviation (SD) of the normalized time-activity data. This approach provided the upper and the lower bounds for the estimated TIACs.
The mice-to-human TIAC extrapolation was obtained considering the different (species-specific) relative source organ masses, m(organ), as compared to the total body weight (WB), for the mice (m) and human (h) models respectively.
as §1, with “the” for “ICRP-89”, “models phantoms defined in ICRP-89,” for “phantoms,”, “TIACs values, TIACh, for each source organ” for “TIACs, TIACh”, “input into the kinetic module of” for “entered in”, “software (version 2.1, HERMES Medical Solutions AB, Stockholm, Sweden)” for “software”

[2] = PC3-mice, One-Phase Decay Model
[3] = ICRP 89 Adult Female, extrapolated
[4] = ICRP 89 Adult Male, extrapolated
[5] = human extrapolation, male-female range

Bone clearance half-life, 95% confidence interval (PC3-mice; [2]): 27.60 to 33.77 h | Kidney clearance half-life, 95% confidence interval (PC3-mice; [2]): 23.41 to 38.84 h | Liver clearance half-life, 95% confidence interval (PC3-mice; [2]): 70.61 to 362.5 h | Pancreas clearance half-life, 95% confidence interval (PC3-mice; [2]): 16.87 to 39.95 h | Salivary glands clearance half-life, 95% confidence interval (PC3-mice; [2]): 12.06 to 34.90 h | Tumor clearance half-life, 95% confidence interval (PC3-mice; [2]): 19.85 to 32.80 h | tumor biological half-life (PC3-mice; PC3-tumors): 25.5 h | Absorbed dose (AD average) Adrenals [1, 3]: 1.46E-02 mGy/Mbq | Absorbed dose (AD average) Brain [1, 3]: 2.94E-02 mGy/Mbq | Absorbed dose (AD average) Breasts [1, 3]: 2.88E-02 mGy/Mbq | Absorbed dose (AD average) Esophagus [1, 3]: 3.06E-02 mGy/Mbq | Absorbed dose (AD average) Eyes [1, 3]: 2.94E-02 mGy/Mbq | Absorbed dose (AD average) Gallbladder Wall [1, 3]: 3.30E-02 mGy/Mbq | Absorbed dose (AD average) Heart Wall [1, 3]: 4.42E-02 mGy/Mbq | Absorbed dose (AD average) Left colon [1, 3]: 1.05E-01 mGy/Mbq | Absorbed dose (AD average) Ovaries [1, 3]: 3.09E-02 mGy/Mbq | Absorbed dose (AD average) Rectum [1, 3]: 1.07E-01 mGy/Mbq | Absorbed dose (AD average) Right colon [1, 3]: 6.88E-02 mGy/Mbq | Absorbed dose (AD average) Stomach Wall [1, 3]: 4.24E-02 mGy/Mbq | Absorbed dose (AD average) Thymus [1, 3]: 3.04E-02 mGy/Mbq | Absorbed dose (AD average) Thyroid [1, 3]: 2.95E-02 mGy/Mbq | Absorbed dose (AD average) Urinary Bladder Wall [1, 3]: 3.05E-02 mGy/Mbq | Absorbed dose (AD average) Uterus [1, 3]: 3.10E-02 mGy/Mbq | Effective dose (average) [1, 3]: 4.71E-02 | Absorbed dose (AD average) Adrenals [1, 4]: 1.17E-02 mGy/Mbq | Absorbed dose (AD average) Brain [1, 4]: 1.98E-02 mGy/Mbq | Absorbed dose (AD average) Esophagus [1, 4]: 2.11E-02 mGy/Mbq | Absorbed dose (AD average) Eyes [1, 4]: 1.97E-02 mGy/Mbq | Absorbed dose (AD average) Gallbladder Wall [1, 4]: 2.49E-02 mGy/Mbq | Absorbed dose (AD average) Heart Wall [1, 4]: 3.66E-02 mGy/Mbq | Absorbed dose (AD average) Left colon [1, 4]: 8.56E-02 mGy/Mbq | Absorbed dose (AD average) Prostate [1, 4]: 2.04E-02 mGy/Mbq | Absorbed dose (AD average) Rectum [1, 4]: 8.54E-02 mGy/Mbq | Absorbed dose (AD average) Right colon [1, 4]: 5.39E-02 mGy/Mbq | Absorbed dose (AD average) Stomach Wall [1, 4]: 3.05E-02 mGy/Mbq | Absorbed dose (AD average) Testes [1, 4]: 1.95E-02 mGy/Mbq | Absorbed dose (AD average) Thymus [1, 4]: 2.03E-02 mGy/Mbq | Absorbed dose (AD average) Thyroid [1, 4]: 2.02E-02 mGy/Mbq | Absorbed dose (AD average) Urinary Bladder Wall [1, 4]: 2.03E-02 mGy/Mbq | Effective dose (average) ([1]; ICRP 89 Adult Male, extrapolated, in mSv/MBq (unit assumed)): 3.40E-02 | absorbed dose kidneys [1, 5]: 0.04–0.05 Gy/GBq | absorbed dose liver [1, 5]: 0.16–0.20 Gy/GBq | absorbed dose salivary glands [1, 5]: 0.10–0.13 Gy/GBq | total body and effective doses [1, 5]: 0.033–0.044 Gy/GBq | TIAC average Left Column ([1]; human female, extrapolated): 0.1373 | TIAC average ROB ([1]; human female, extrapolated): 18.6076 | TIAC average Rectum ([1]; human female, extrapolated): 0.1420 | TIAC average Red marrow ([1]; human female, extrapolated): 0.2030 | TIAC average Small Intestine ([1]; human female, extrapolated): 0.1803 | TIAC average Total Frac IA ([1]; human female, extrapolated): 25.6850 | TIAC average adrenal ([1]; human female, extrapolated): 0.0011 | TIAC average bone ([1]; human female, extrapolated): 4.9073 | TIAC average heart content ([1]; human female, extrapolated): 0.0834 | TIAC average heart wall ([1]; human female, extrapolated): 0.0889 | TIAC average kidney ([1]; human female, extrapolated): 0.1445 | TIAC average liver ([1]; human female, extrapolated): 3.1244 | TIAC average lung ([1]; human female, extrapolated): 0.4651 | TIAC average pancreas ([1]; human female, extrapolated): 0.0460 | TIAC average salivary glands ([1]; human female, extrapolated): 0.1012 | TIAC average spleen ([1]; human female, extrapolated): 0.0480 | TIAC average stomach ([1]; human female, extrapolated): 0.0626 | TIAC average Left Column ([1]; human male, extrapolated): 0.1129 | TIAC average ROB ([1]; human male, extrapolated): 15.0586 | TIAC average Rectum ([1]; human male, extrapolated): 0.1129 | TIAC average Red marrow ([1]; human male, extrapolated): 0.2169 | TIAC average Small Intestine ([1]; human male, extrapolated): 0.1684 | TIAC average Total Frac IA ([1]; human male, extrapolated): 25.6850 | TIAC average adrenal ([1]; human male, extrapolated): 0.0009 | TIAC average bone ([1]; human male, extrapolated): 5.5459 | TIAC average heart content ([1]; human male, extrapolated): 0.0945 | TIAC average heart wall ([1]; human male, extrapolated): 0.0965 | TIAC average kidney ([1]; human male, extrapolated): 0.1339 | TIAC average liver ([1]; human male, extrapolated): 3.3017 | TIAC average lung ([1]; human male, extrapolated): 0.4829 | TIAC average pancreas ([1]; human male, extrapolated): 0.0441 | TIAC average salivary glands ([1]; human male, extrapolated): 0.1010 | TIAC average spleen ([1]; human male, extrapolated): 0.0456 | TIAC average stomach ([1]; human male, extrapolated): 0.0557
Compound: N#C[C@@H]1CC(F)(F)CN1C(=O)CNC(=O)c1ccnc2ccc(OCCCCNC(=O)CC[C@H](NC(=O)CCC(C(=O)O)N3CCN(CC(=O)[O-])CCN(CC(=O)[O-])CCN(CC(=O)[O-])CC3)C(=O)NCCCCOc3ccc4nccc(C(=O)NCC(=O)N5CC(F)(F)C[C@H]5C#N)c4c3)cc12.[177Lu+3] (some centres unmarked) [[^177Lu]Lu-DOTAGA.Glu.(FAPI)2]
Absorbed dose (AD average) Kidneys [1, 3]: 4.97E-02 ± 0.002 mGy/Mbq and 4.97E-02 mGy/Mbq | Absorbed dose (AD average) Liver [1, 3]: 2.00E-01 ± 0.02 mGy/Mbq and 2.00E-01 mGy/Mbq | Absorbed dose (AD average) Lungs [1, 3]: 4.59E-02 ± 0.004 mGy/Mbq and 4.59E-02 mGy/Mbq | Absorbed dose (AD average) Osteogenic Cells [1, 3]: 8.92E-02 ± 0.01 mGy/Mbq and 8.92E-02 mGy/Mbq | Absorbed dose (AD average) Pancreas [1, 3]: 3.90E-02 ± 0.002 mGy/Mbq and 3.90E-02 mGy/Mbq | Absorbed dose (AD average) Red Marrow [1, 3]: 3.24E-02 ± 0.003 mGy/Mbq and 3.24E-02 mGy/Mbq | Absorbed dose (AD average) Salivary Glands [1, 3]: 1.26E-01 ± 0.004 mGy/Mbq and 1.26E-01 mGy/Mbq | Absorbed dose (AD average) Small Intestine [1, 3]: 5.84E-02 ± 0.02 mGy/Mbq and 5.84E-02 mGy/Mbq | Absorbed dose (AD average) Spleen [1, 3]: 3.53E-02 ± 0.01 mGy/Mbq and 3.53E-02 mGy/Mbq | Absorbed dose (AD average) Total Body [1, 3]: 4.42E-02 ± 0.01 mGy/Mbq and 4.42E-02 mGy/Mbq | Absorbed dose (AD average) Kidneys [1, 4]: 4.08E-02 ± 0.002 mGy/Mbq and 4.08E-02 mGy/Mbq | Absorbed dose (AD average) Liver [1, 4]: 1.64E-01 ± 0.01 mGy/Mbq and 1.64E-01 mGy/Mbq | Absorbed dose (AD average) Lungs [1, 4]: 3.74E-02 ± 0.003 mGy/Mbq and 3.74E-02 mGy/Mbq | Absorbed dose (AD average) Osteogenic Cells [1, 4]: 9.26E-02 ± 0.01 mGy/Mbq and 9.26E-02 mGy/Mbq | Absorbed dose (AD average) Pancreas [1, 4]: 3.11E-02 ± 0.002 mGy/Mbq and 3.11E-02 mGy/Mbq | Absorbed dose (AD average) Red Marrow [1, 4]: 2.38E-02 ± 0.002 mGy/Mbq and 2.38E-02 mGy/Mbq | Absorbed dose (AD average) Salivary Glands [1, 4]: 1.03E-01 ± 0.004 mGy/Mbq and 1.03E-01 mGy/Mbq | Absorbed dose (AD average) Small Intestine [1, 4]: 4.17E-02 ± 0.01 mGy/Mbq and 4.17E-02 mGy/Mbq | Absorbed dose (AD average) Spleen [1, 4]: 2.87E-02 ± 0.01 mGy/Mbq and 2.87E-02 mGy/Mbq | Absorbed dose (AD average) Total Body [1, 4]: 3.25E-02 ± 0.003 mGy/Mbq and 3.25E-02 mGy/Mbq
